Experiment [1] concerns the target T1, Serine/threonine-protein kinase D1 (Homo sapiens) (UniProt Q15139).
T1 sequence (whole entry): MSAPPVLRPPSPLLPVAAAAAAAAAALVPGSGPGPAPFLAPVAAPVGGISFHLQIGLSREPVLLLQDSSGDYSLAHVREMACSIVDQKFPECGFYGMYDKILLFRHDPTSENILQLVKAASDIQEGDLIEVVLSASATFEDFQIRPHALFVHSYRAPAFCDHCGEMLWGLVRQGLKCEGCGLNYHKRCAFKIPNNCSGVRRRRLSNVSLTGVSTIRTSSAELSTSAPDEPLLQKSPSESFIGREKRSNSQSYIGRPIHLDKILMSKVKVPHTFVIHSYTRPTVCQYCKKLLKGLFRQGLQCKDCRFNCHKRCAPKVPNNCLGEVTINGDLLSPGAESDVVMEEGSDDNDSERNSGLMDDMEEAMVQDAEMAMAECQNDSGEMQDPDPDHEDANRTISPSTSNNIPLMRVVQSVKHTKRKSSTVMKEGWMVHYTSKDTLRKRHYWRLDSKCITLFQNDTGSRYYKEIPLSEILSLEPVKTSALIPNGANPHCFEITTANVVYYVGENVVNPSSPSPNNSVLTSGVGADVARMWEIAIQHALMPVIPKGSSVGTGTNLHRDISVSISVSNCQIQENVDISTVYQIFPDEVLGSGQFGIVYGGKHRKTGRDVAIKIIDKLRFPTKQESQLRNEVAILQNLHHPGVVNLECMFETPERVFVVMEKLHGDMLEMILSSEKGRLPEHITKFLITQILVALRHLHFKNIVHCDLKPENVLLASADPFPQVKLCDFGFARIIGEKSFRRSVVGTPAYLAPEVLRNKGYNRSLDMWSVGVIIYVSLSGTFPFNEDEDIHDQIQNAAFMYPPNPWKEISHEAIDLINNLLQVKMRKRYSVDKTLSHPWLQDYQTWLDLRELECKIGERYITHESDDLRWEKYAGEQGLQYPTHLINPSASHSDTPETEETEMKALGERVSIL
The experiment can be described thus: Residual activity of human PKCmu/PRKD1 using KKLNRTLSVA as substrate at 1 uM in presence of 32P-ATP by Hotspot assay relative to control.

The target of experiment [2] is Mitogen-activated protein kinase kinase kinase 10 (Homo sapiens) (UniProt Q02779). In words: Residual activity of human MLK2/MAP3K10 using myelin basic protein as substrate at 1 uM in presence of 32P-ATP by Hotspot assay relative to control.
Mitogen-activated protein kinase kinase kinase 10 (Homo sapiens), sequence (Q02779 whole entry, looked up): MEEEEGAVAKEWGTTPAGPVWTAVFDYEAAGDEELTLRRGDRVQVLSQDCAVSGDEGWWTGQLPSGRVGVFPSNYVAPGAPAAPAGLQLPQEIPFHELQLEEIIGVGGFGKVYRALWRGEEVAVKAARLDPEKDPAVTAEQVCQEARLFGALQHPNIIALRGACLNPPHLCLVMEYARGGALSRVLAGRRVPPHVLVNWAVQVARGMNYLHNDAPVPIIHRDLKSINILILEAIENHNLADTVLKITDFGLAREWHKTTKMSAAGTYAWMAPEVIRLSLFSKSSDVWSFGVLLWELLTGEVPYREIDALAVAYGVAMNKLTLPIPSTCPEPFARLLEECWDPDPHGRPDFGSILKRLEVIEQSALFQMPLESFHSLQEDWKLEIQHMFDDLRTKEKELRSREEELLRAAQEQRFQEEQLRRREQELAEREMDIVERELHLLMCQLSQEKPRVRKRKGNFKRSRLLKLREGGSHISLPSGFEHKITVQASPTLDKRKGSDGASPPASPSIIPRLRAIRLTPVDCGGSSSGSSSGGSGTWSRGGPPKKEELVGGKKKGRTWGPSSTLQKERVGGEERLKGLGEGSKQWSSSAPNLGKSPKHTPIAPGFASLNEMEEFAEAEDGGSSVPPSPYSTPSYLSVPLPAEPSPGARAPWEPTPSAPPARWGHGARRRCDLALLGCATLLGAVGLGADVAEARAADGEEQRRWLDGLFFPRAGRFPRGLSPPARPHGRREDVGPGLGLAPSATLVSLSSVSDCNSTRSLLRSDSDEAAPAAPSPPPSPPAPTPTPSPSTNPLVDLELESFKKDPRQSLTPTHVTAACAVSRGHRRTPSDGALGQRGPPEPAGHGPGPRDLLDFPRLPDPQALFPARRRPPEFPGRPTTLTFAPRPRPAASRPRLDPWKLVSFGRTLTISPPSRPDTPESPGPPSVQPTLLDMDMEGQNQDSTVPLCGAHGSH
In experiment [3] the target is Mitogen-activated protein kinase 8 (Homo sapiens) (UniProt P45983). The experiment can be described thus: Inhibition of human JNK1 using ATF2 as substrate at 1 uM in presence of 32P-ATP by Hotspot assay relative to control; values are per cent of control.
Mitogen-activated protein kinase 8 (Homo sapiens), sequence (P45983 whole entry): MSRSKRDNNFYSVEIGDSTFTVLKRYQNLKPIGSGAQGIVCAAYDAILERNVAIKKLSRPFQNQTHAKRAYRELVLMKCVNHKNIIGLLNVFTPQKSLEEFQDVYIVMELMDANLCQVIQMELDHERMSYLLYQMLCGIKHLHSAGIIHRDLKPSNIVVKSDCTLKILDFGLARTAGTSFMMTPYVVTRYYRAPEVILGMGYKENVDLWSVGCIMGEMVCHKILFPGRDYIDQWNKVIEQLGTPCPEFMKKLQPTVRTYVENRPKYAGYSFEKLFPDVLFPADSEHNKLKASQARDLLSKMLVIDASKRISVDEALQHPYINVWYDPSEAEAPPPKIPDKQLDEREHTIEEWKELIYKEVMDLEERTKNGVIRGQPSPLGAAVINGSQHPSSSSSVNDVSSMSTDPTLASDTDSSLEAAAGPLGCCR
Experiment [4] has as its target Calcium/calmodulin-dependent protein kinase type 1B (Homo sapiens) (UniProt Q6P2M8). The experiment can be described thus: Inhibition of human CAMK1b using KKALRRQETVDAL as substrate at 1 uM in presence of 32P-ATP by Hotspot assay relative to control; values are per cent of control.
Experiment [5] deals with Tyrosine-protein kinase CSK (Homo sapiens) (UniProt P41240). The experiment can be described thus: Inhibition of human CSK using poly[Glu:Tyr] (4:1) as substrate at 1 uM in presence of 32P-ATP by Hotspot assay relative to control; values are per cent of control.
Tyrosine-protein kinase CSK (Homo sapiens), sequence (P41240 2-450 limits assumed): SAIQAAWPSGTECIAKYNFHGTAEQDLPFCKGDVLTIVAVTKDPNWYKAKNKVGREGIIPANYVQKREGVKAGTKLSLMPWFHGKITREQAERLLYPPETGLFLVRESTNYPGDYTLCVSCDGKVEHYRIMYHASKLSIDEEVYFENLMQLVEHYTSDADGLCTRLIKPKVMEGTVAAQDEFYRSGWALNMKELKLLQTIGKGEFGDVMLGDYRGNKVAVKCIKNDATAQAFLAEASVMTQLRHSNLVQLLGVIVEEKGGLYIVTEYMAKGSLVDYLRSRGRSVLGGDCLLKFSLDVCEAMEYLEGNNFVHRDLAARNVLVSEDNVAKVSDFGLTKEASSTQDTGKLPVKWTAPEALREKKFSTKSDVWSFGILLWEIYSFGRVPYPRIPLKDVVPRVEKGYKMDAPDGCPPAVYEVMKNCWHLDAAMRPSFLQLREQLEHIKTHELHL
The target in experiment [6] is Fibroblast growth factor receptor 4 (Homo sapiens) (UniProt P22455). In words: Inhibition of human FGFR4 using poly[Glu:Tyr] (4:1) as substrate at 1 uM in presence of 32P-ATP by Hotspot assay relative to control; values are per cent of control.
Fibroblast growth factor receptor 4 (Homo sapiens), sequence (P22455 22-802 limits assumed): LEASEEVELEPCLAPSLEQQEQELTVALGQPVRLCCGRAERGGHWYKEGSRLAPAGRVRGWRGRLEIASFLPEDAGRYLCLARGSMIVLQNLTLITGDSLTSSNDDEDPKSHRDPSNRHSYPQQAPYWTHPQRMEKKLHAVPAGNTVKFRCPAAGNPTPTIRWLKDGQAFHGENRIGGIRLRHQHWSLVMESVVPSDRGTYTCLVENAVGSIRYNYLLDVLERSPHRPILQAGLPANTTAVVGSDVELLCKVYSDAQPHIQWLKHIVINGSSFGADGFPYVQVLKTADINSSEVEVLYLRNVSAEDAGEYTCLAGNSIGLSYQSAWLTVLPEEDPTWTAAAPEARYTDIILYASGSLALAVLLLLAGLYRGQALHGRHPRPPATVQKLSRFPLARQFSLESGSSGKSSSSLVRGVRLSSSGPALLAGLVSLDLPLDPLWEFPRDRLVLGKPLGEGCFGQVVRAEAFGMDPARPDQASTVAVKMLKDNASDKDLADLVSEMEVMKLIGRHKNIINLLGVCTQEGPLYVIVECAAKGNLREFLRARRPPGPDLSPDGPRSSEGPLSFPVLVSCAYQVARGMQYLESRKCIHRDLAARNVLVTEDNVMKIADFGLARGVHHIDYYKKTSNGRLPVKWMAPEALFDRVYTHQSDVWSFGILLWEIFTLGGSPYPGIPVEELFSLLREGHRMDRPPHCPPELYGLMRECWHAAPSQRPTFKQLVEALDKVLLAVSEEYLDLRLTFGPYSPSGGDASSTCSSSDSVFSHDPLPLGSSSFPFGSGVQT
In experiment [7] the target is Ribosomal protein S6 kinase beta-2 (Homo sapiens) (UniProt Q9UBS0). In words: Inhibition of human p70S6Kb/RPS6KB2 using KKRNRTLTK as substrate at 1 uM in presence of 32P-ATP by Hotspot assay relative to control; values are per cent of control.
Ribosomal protein S6 kinase beta-2 (Homo sapiens), sequence (Q9UBS0 whole entry): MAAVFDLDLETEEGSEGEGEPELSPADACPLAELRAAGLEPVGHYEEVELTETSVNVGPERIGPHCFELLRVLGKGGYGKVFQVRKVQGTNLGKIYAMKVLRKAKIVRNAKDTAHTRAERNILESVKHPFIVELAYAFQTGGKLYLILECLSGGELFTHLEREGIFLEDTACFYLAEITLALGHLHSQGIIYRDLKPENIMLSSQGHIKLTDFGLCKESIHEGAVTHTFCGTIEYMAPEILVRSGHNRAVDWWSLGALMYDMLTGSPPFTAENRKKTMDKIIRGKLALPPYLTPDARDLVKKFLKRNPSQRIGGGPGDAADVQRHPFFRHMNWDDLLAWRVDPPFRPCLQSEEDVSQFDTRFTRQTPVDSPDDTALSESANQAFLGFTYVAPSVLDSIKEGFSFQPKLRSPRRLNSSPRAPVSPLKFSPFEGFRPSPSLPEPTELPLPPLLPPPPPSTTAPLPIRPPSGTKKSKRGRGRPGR
Experiment [8] addresses T2, Serine/threonine-protein kinase 17A (Homo sapiens) (UniProt Q9UEE5).
T2 sequence (whole entry): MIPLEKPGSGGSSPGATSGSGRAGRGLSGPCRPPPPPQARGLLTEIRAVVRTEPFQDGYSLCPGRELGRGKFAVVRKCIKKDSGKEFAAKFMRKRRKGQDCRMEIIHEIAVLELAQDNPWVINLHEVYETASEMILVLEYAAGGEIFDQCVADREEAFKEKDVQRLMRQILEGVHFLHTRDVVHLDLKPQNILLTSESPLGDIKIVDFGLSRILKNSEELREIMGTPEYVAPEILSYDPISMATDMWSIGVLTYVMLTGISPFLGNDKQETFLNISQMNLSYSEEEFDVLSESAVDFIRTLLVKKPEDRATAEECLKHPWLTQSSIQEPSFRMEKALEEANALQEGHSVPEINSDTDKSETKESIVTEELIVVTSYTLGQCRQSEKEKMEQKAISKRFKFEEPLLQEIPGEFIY
In words: Inhibition of human DRAK1/STK17A using KKLNRTLSFAEPG as substrate at 1 uM in presence of 32P-ATP by Hotspot assay relative to control; values are per cent of control.

Experiment [9] deals with Insulin receptor-related protein (Homo sapiens) (UniProt P14616). The experiment can be described thus: Inhibition of human IRR/INSRR using myelin basic protein as substrate at 1 uM in presence of 32P-ATP by Hotspot assay relative to control; values are per cent of control.
Insulin receptor-related protein (Homo sapiens), sequence (P14616 27-742 limits assumed): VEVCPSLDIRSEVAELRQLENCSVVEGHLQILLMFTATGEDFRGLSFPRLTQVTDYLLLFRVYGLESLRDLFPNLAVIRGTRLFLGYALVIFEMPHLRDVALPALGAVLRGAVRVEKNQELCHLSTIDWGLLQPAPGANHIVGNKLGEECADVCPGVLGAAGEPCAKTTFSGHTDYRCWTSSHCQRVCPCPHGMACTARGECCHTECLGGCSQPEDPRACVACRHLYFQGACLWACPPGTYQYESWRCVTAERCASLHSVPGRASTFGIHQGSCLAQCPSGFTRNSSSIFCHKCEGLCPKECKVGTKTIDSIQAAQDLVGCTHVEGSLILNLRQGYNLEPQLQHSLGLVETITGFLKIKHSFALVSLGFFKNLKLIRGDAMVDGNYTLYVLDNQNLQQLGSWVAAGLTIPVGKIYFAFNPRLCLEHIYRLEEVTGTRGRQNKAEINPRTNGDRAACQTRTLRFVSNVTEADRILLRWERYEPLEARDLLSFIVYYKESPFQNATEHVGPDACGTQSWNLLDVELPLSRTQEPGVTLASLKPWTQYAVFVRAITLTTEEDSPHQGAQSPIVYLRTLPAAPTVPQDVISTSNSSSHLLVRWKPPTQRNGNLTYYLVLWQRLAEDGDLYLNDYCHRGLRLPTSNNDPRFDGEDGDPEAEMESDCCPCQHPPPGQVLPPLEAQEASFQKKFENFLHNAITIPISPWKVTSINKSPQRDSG
Insulin receptor-related protein (Homo sapiens), sequence (P14616 747-1297 limits assumed): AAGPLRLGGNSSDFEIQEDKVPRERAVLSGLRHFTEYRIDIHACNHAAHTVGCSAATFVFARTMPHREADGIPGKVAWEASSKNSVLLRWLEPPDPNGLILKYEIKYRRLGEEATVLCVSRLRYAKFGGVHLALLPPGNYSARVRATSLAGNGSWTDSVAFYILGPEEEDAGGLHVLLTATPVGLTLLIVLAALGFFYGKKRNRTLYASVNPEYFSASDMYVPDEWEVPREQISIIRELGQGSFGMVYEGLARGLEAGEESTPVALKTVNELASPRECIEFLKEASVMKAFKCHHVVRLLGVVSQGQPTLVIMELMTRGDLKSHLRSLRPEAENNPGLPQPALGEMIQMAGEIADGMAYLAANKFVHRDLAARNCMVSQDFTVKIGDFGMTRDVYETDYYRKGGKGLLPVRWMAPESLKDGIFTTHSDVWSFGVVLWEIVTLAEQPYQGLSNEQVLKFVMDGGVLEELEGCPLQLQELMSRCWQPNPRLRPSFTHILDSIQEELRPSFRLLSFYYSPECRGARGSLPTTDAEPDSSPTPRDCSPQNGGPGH
Experiment [10] has as its target T3, Serine/threonine-protein kinase 3 (Homo sapiens) (UniProt Q13188).
T3 sequence (whole entry): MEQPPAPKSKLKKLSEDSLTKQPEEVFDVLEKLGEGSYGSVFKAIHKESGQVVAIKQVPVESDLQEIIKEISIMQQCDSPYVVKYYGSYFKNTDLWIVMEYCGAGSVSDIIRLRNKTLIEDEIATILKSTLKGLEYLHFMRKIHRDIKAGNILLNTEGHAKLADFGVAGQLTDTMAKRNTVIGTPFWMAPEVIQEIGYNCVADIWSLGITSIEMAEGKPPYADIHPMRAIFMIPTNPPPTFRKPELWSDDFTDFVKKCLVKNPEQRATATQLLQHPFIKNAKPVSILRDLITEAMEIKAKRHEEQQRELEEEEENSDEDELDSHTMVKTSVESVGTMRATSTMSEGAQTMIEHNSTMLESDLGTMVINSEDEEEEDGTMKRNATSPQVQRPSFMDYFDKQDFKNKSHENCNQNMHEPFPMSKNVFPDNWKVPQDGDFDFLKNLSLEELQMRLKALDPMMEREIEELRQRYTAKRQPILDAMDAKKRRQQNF
In words: Inhibition of human MST2/STK3 using myelin basic protein as substrate at 1 uM in presence of 32P-ATP by Hotspot assay relative to control; values are per cent of control.

Consider 3 compounds from ChEMBL document CHEMBL5649166, “RIP3 induces apoptosis independent of pronecrotic kinase activity” (Mol Cell, 2014).

Calcium/calmodulin-dependent protein kinase type 1B (Homo sapiens), sequence (Q6P2M8 whole entry): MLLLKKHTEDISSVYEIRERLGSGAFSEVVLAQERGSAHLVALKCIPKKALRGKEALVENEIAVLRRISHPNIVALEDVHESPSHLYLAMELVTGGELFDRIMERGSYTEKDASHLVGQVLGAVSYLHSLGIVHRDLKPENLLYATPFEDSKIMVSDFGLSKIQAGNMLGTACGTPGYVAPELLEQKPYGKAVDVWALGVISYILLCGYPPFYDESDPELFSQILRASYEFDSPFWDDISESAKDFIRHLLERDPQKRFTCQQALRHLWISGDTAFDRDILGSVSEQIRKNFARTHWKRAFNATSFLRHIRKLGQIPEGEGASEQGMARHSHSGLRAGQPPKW

For the compound `Cc1cc(-c2cnc(N)c3c(-c4ccc5scnc5c4)csc23)n(C)n1`, the residual activity was 51.6% in experiment [1]; 97.5% in [2]; 91.6% in [3]; 98.5% in [4]; 69.5% in [5]; 47.4% in [6]. Also, the residual activity in experiment [7] came out at 95.1%; in experiment [8], 96.8%; in experiment [9], 86.7%; in experiment [10], 93.8%.

As for `CC(C)S(=O)(=O)c1ccc2nccc(Nc3ccc4scnc4c3)c2c1`, the residual activity came out at 98.9% in experiment [1]; 84.5% in [2]; 96.8% in [3]; 87.8% in experiment [4]; 58.8% in [5]; 77.6% in [6]. For the same compound, the residual activity in [7] amounted to 92.8%; in [8], 99%; in experiment [9] it was 98.6%; in experiment [10], 101%.

Take `CNC(=O)c1ccc2c(c1)ncn2-c1ccc(CC(=O)OC(C)(C)C)cc1`: the residual activity in [1] was 99.5%; in [2], 90.9%; in experiment [3] it was 103%; in experiment [4] it was 90.2%; in [5], 78.6%; in experiment [6], 93.4%. Further, the residual activity came out at 92.3% in experiment [7], 98.9% in experiment [8], 93.3% in experiment [9] and 95.2% in experiment [10].
